Measurements as given in publication PMC8020795 (Proceedings of the National Academy of Sciences of the …, 2021).

Assays:
[1] = tested on: HCA-1 cells; assay: EMT marker expression under hypoxia (qRT-PCR); assay type: cell-based, murine; conditions: hypoxic conditions (1% oxygen)
Protocol: Signaling, Danvers, MA) or β-actin (Sigma-Aldrich, St. Louis, MO) before incubation with HRP-conjugated secondary antibodies (Antibodies Inc., Davis, CA) for 1 h. Autoradiography was conducted after ECL reagent (Thermo Scientific, Rockford, IL) was added to the […]
(§1) Reverse transcription quantitative real time PCR
(§2) Total RNA was extracted from HCA-1 cells using the RNeasy Mini Kit (Qiagen, CA, USA). cDNAs were synthesized using the High-Capicity cDNA Reverse Transcription Kit (Applied Biosystems, CA, USA). Primers specific for Slug, Fn1, Cdh2, Vim, Foxc2, Zeb1, Zeb2, Twist1, Cdh1, Mta3, Cldn3, Cldn5, β-actin and GAPDH were used, and relative gene expression was determined using Real-Time SYBR Green PCR Master Mix (Applied Biosystems, CA, USA) on a QPCR System. The comparative threshold cycle method was used to calculate fold change in gene expression, which was normalized to β-actin as a […]

[2] = tested on: HCA-1 cells; assay: CXCL12-induced HCA-1 chemotaxis (invasion assay); assay type: cell-based, murine; conditions: concentration up to 1 µM
Protocol: [3-(2-Aminomethyl-oxazol-4-yl)-propyl]-[3-(tert-butoxycarbonyl-cyclohexyl-amino)- propyl]-carbamic acid tert-butyl ester (Linker 1). A mixture of L1-6 (10.35 g, 16.5 mmol) and 10% Pd/C (4.66 g) in iso-propanol (310 mL) was stirred under H2(g) at 50 °C for 15 h.
The resulting mixture was filtered, and the filtrate was concentrated to afford Linker 1 (7.23 g, […]
Wound healing and invasion assays
Cell migration ability was measured by wound healing assay. HCA-1 cells (5 × 10^5 cells per well) were seeded onto 12-well plates and incubated overnight. When the cell confluence exceeded 90%, scratch wounds were made by scraping a straight line in the middle of the cell layer using the tip of a 1000 µL pipette. After washing the cells with PBS, the cells were incubated in serum-free medium under different treatment conditions (control, 100 ng/mL CXCL12, and 10 µM BPRCX807 with 100 ng/mL CXCL12). Then, 3-4 fields (40×) of each group were randomly chosen and observed by a microscope (IX83, Olympus, Japan) at time points of 0 h, 24h, 48 h and 72 h. For the invasion assay, HCA-1 cells were suspended in RPMI 1640 containing 0.5% FBS and then preincubated with the indicated concentrations of compounds for 10 min at 37 °C. […] After 17.5 h of incubation at 37 °C, the cells in both chambers of the inserts were measured with a CellTiter-Glo Luminescent Cell Viability Assay (Promega, Wisconsin). […]

[3] = in vivo; conditions: male, C57BL/6, mouse, in vivo, sc, 6 mg/kg
Protocol: Pharmacokinetics and toxicological studies
Male C57BL/6 mice, each weighing 23.4–25.4 g, were quarantined for 1 week before drug treatment. Compounds dissolved in 100% saline were individually given to mice (n = 3) subcutaneously (6 mg/kg; nonfasted mice). Blood samples were collected via cardiac puncture at defined time points (0 (immediately before dosing), 0.03, 0.08, 0.25, 0.5, 1, 2, and 4 h after dosing) and then stored at −80 °C. The volume of the dosing solution given was 100 µL for each mouse. The plasma samples were analyzed by liquid chromatography– tandem mass spectrometry (LC–MS/MS), and the data were calculated by a standard noncompartmental method using the Kinetica software program (InnaPhase). […]

[4] = tested on: CXCR4+CD34+ stem cells; assay: CXCR4+CD34+ stem cell mobilization; assay type: in vivo, C57BL/6 mice; conditions: 6 mg/kg SC, peripheral blood 2 h after dosing
Protocol: Cy7, and CD206-APC (BioLegend, San Diego, CA) antibodies, as previously described.[8] Flow cytometry data were acquired on a BD FACSAria III flow cytometer and analyzed with […]
C57BL/6 male mice were treated with potential CXCR4 antagonist individually by subcutaneous injection, and then blood samples containing mobilized stem/progenitor cells were collected 2 hours later. After labeled with specific antibodies, including APC-conjugated anti-CXCR4 (clone 2B11; eBioscience) and FITC-conjugated anti-CD34 (clone RAM34; eBioscience), cells were washed, characterized and quantified by flow cytometer (Guava Technologies, Hayward, CA, USA). Each data point included at least 60,000 events for analysis of other cell types.
Western blotting was conducted by following standard procedures. HCA-1 or JHH-7 cells (10^5 cells per well) were seeded in 12-well plates (Costar, IL), incubated for 12 h and […]
as §1
as §2, with “System.” for “System. The comparative threshold cycle method was used to calculate fold change in gene expression, which was normalized to β-actin as a”

## Cc1cc(NC2CCN(C(=O)CCNCC(=O)O)CC2)nc(NCc2nc(CCCNCCCNC3CCCCC3)co2)n1 [BPRCX807]
[1]
  Expression of epithelial markers (E-cadherin, MTA-3, CLDN3, CLDN5): alleviated a hypoxia-induced decrease in the epithelial markers
[1]; dose-dependent
  Expression of mesenchymal markers (Slug, Fibronectin, N-cadherin, Vimentin, FOXC2, Zeb1, Zeb2): restrained the increases in the expression of mesenchymal markers
[2]
  CXCL12-induced cell migration: significant decrease
[3]
  AUC(0-t): 16500 ng·h/mL
  Cmax: 18800 ng/mL
  half-life: 1 h
[4]
  Number of CXCR4+CD34+ stem cells mobilized, relative to AMD3100: roughly 1.5 fold
